Drawing on patent publication US9598440B2, “Inhibitors of IRAK4 activity” (MERCK SHARP & DOHME CORP., priority 2012, dated 2017), this text covers IC50 for 20 compounds.

pIC50: −log10 of the molar value.

Chain of IRAK4 (Q9NWZ3 whole entry): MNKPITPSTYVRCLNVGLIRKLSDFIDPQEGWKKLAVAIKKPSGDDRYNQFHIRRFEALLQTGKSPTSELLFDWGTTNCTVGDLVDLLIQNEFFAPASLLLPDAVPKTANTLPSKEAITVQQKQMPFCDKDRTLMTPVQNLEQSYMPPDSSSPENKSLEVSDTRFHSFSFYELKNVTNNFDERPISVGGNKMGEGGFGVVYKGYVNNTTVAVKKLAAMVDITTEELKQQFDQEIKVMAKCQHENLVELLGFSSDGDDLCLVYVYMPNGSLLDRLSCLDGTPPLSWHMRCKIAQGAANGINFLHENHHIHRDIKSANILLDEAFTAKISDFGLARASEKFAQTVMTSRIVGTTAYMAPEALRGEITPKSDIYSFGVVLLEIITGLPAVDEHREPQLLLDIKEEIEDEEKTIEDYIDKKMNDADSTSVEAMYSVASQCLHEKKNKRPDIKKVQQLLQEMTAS

The test has as its target IRAK4 (Homo sapiens (Human), UniProt Q9NWZ3). Put plainly: Determination of IRAK4 kinase activity (IMAP fluorescence polarization, phosphorylation of fluorescent peptide substrate). The test is classed as biochemical. The settings on record: 0.5 nM GST tagged IRAK4, 100 nM peptide substrate RP7030, 100 μM ATP, 30 minutes at 25° C. Put shortly:
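GST-tagged IRAK4 (0.5 nM) phosphorylated 100 nM fluorescent peptide substrate with 100 µM ATP in Tris-HCl pH 7.2, 1 mM MgCl2, 1 mM DTT, 0.01% Tween 20 for 30 min at 25 °C. Phosphorylation read by IMAP nanoparticle binding as fluorescence polarization increase.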
On to `OC[C@H]1C[C@@H](Nc2nc(NC3CCCC3)ncc2-c2nc3ccccc3s2)[C@H](O)[C@@H]1O` [Example 33, (1R,2S,3R,5R)-3-((5-(benzo[d]thiazol-2-yl)-2-(cyclopentylamino)pyrimidin-4-yl)amino)-5-(hydroxymethyl)cyclopentane-1,2-diol], for which the pIC50 is 6.30.

`CN(C)c1ccc(Nc2ncc(-c3nc4ccccc4s3)c(N[C@@H]3C[C@H](CO)[C@@H](O)[C@H]3O)n2)cc1` [Example 34, (1R,2S,3R,5R)-3-((5-(benzo[d]thiazol-2-yl)-2-((4-(dimethylamino)phenyl)amino)pyrimidin-4-yl)amino)-5-(hydroxymethyl)cyclopentane-1,2-diol] showed a negative logarithm of the IC50 (pIC50) of 7.92.

For `Cc1cc(C)cc(Nc2ncc(-c3nc4ccccc4s3)c(N[C@@H]3C[C@H](CO)[C@@H](O)[C@H]3O)n2)c1` [Example 35, (1R,2S,3R,5R)-3-((5-(benzo[d]thiazol-2-yl)-2-((3,5-dimethylphenyl)amino)pyrimidin-4-yl)amino)-5-(hydroxymethyl)cyclopentane-1,2-diol], the pIC50 is 8.00.

The compound `COc1cccc([C@@H](C)Nc2ncc(-c3nc4ccccc4s3)c(N[C@@H]3C[C@H](CO)[C@@H](O)[C@H]3O)n2)c1` [Example 36, (1R,2S,3R,5R)-3-((5-(benzo[d]thiazol-2-yl)-2-(((R)-1-(3-methoxyphenyl)ethyl)amino)pyrimidin-4-yl)amino)-5-(hydroxymethyl)cyclopentane-1,2-diol] showed a pIC50 of 6.33.

`OC[C@H]1C[C@@H](Nc2nc(Nc3cccnc3)ncc2-c2nc3ccccc3s2)[C@H](O)[C@@H]1O` [Example 37, (1R,2S,3R,5R)-3-((5-(benzo[d]thiazol-2-yl)-2-(pyridin-3-ylamino)pyrimidin-4-yl)amino)-5-(hydroxymethyl)cyclopentane-1,2-diol] showed a negative-log IC50 (pIC50) of 8.00.

For `Nc1ncc(-c2ccccn2)c(N[C@@H]2C[C@H](CO)[C@@H](O)[C@H]2O)n1` [Example 38, (1R,2S,3R,5R)-3-((2-amino-5-(pyridin-2-yl)pyrimidin-4-yl)amino)-5-(hydroxymethyl)cyclopentane-1,2-diol], the pIC50 is 6.21.

With `CN(C)c1cccc(Nc2ncc(-c3nc4ccccc4s3)c(N[C@@H]3C[C@H](CO)[C@@H](O)[C@H]3O)n2)c1` [Example 39, (1R,2S,3R,5R)-3-((5-(benzo[d]thiazol-2-yl)-2-((3-(dimethylamino)phenyl)amino)pyrimidin-4-yl)amino)-5-(hydroxymethyl)cyclopentane-1,2-diol], the pIC50 was 8.05.

The compound `Cc1cc(Nc2ncc(-c3cncs3)c(N[C@@H]3C[C@H](CO)[C@@H](O)[C@H]3O)n2)cc(C)n1` [Example 40, (1R,2S,3R,5R)-3-((2-((2,6-dimethylpyridin-4-yl)amino)-5-(thiazol-5-yl)pyrimidin-4-yl)amino)-5-(hydroxymethyl)cyclopentane-1,2-diol] showed a pIC50 of 7.19.

As for `Cc1cc(Nc2ncc(-c3cscn3)c(N[C@@H]3C[C@H](CO)[C@@H](O)[C@H]3O)n2)cc(C)n1` [Example 41, (1R,2S,3R,5R)-3-((2-((2,6-dimethylpyridin-4-yl)amino)-5-(thiazol-4-yl)pyrimidin-4-yl)amino)-5-(hydroxymethyl)cyclopentane-1,2-diol], the pIC50 was 8.10.

In the case of `OC[C@H]1C[C@@H](Nc2nc(Nc3ccc(OC(F)(F)F)cc3)ncc2-c2nc3ccccc3s2)[C@H](O)[C@@H]1O` [Example 42, (1R,2S,3R,5R)-3-((5-(benzo[d]thiazol-2-yl)-2-((4-(trifluoromethoxy)phenyl)amino)pyrimidin-4-yl)amino)-5-(hydroxymethyl)cyclopentane-1,2-diol], the pIC50 is 6.26. This pIC50 is 1.84 log units lower than that of the compound before.

In turn, `COc1ccc(Nc2ncc(-c3nc4ccccc4s3)c(N[C@@H]3C[C@H](CO)[C@@H](O)[C@H]3O)n2)cn1` [Example 43, (1R,2S,3R,5R)-3-((5-(benzo[d]thiazol-2-yl)-2-((6-methoxypyridin-3-yl)amino)pyrimidin-4-yl)amino)-5-(hydroxymethyl)cyclopentane-1,2-diol] showed a negative-log IC50 (pIC50) of 8.09. Compared with the last compound, the pIC50 is 1.83 log units higher.

`CN1CCN(c2ccc(Nc3ncc(-c4nc5ccccc5s4)c(N[C@@H]4C[C@H](CO)[C@@H](O)[C@H]4O)n3)cc2)CC1` [Example 44, (1R,2S,3R,5R)-3-((5-(benzo[d]thiazol-2-yl)-2-((4-(4-methylpiperazin-1-yl)phenyl)amino)pyrimidin-4-yl)amino)-5-(hydroxymethyl)cyclopentane-1,2-diol]: the negative-log IC50 (pIC50) is 8.52.

With `CN1CCN(c2cccc(Nc3ncc(-c4nc5ccccc5s4)c(N[C@@H]4C[C@H](CO)[C@@H](O)[C@H]4O)n3)c2)CC1` [Example 45, (1R,2S,3R,5R)-3-((5-(benzo[d]thiazol-2-yl)-2-((3-(4-methylpiperazin-1-yl)phenyl)amino)pyrimidin-4-yl)amino)-5-(hydroxymethyl)cyclopentane-1,2-diol], the negative logarithm of the IC50 (pIC50) was 8.59.

`Nc1ncc(-c2cc3ccccc3s2)c(N[C@@H]2C[C@H](CO)[C@@H](O)[C@H]2O)n1` [Example 46, (1R,2S,3R,5R)-3-((2-amino-5-(benzo[b]thiophen-2-yl)pyrimidin-4-yl)amino)-5-(hydroxymethyl)cyclopentane-1,2-diol] had a pIC50 of 5.79.

Regarding `OC[C@H]1C[C@@H](Nc2nc(Nc3ccc4[nH]ncc4c3)ncc2-c2nc3ccccc3s2)[C@H](O)[C@@H]1O` [Example 50, (1R,2S,3R,5R)-3-((2-((1H-indazol-5-yl)amino)-5-(benzo[d]thiazol-2-yl)pyrimidin-4-yl)amino)-5-(hydroxymethyl)cyclopentane-1,2-diol], the negative logarithm of the IC50 (pIC50) is 8.19. This pIC50 lies 2.40 log units higher than the previous one.

Take `OC[C@H]1C[C@@H](Nc2nc(NC3CCNCC3)ncc2-c2nc3ccccc3s2)[C@H](O)[C@@H]1O` [Example 52, (1R,2S,3R,5R)-3-((5-(benzo[d]thiazol-2-yl)-2-(piperidin-4-ylamino)pyrimidin-4-yl)amino)-5-(hydroxymethyl)cyclopentane-1,2-diol]: the negative-log IC50 (pIC50) was 6.16.

`CN1CCC(Nc2ncc(-c3nc4ccccc4s3)c(N[C@@H]3C[C@H](CO)[C@@H](O)[C@H]3O)n2)CC1` [Example 53, (1R,2S,3R,5R)-3-((5-(benzo[d]thiazol-2-yl)-2-((1-methylpiperidin-4-yl)amino)pyrimidin-4-yl)amino)-5-(hydroxymethyl)cyclopentane-1,2-diol] had a pIC50 of 5.58.

In the case of `OC[C@H]1C[C@@H](Nc2nc(NC3CNC3)ncc2-c2nc3ccccc3s2)[C@H](O)[C@@H]1O` [Example 54, (1R,2S,3R,5R)-3-((2-(azetidin-3-ylamino)-5-(benzo[d]thiazol-2-yl)pyrimidin-4-yl)amino)-5-(hydroxymethyl)cyclopentane-1,2-diol], the negative-log IC50 (pIC50) is 6.13.

Compound `OC[C@H]1C[C@@H](Nc2nc(NC3CCC3)ncc2-c2ccc3ccccc3n2)[C@H](O)[C@@H]1O` [Example 56, 2-(cyclobutylamino)-6-(((1R,2S,3R,4R)-2,3-dihydroxy-4-(hydroxymethyl)cyclopentyl)amino)-5-(quinolin-2-yl)pyrimidine] showed a negative logarithm of the IC50 (pIC50) of 6.32.

Consider `OC[C@H]1C[C@@H](Nc2nc(NC3COC3)ncc2-c2ccc3ccccc3n2)[C@H](O)[C@@H]1O` [Example 57, 6-(((1R,2S,3R,4R)-2,3-dihydroxy-4-(hydroxymethyl)cyclopentyl)amino)-2-(oxetan-3-ylamino)-5-(quinolin-2-yl)pyrimidine], for which the negative-log IC50 (pIC50) was 4.97.
